Calls of active or inactive are those of the source. The rule behind the calls is not given here.
What was measured:
[1] = Drug uptake in live human HeLa cells assessed as drug internalization at 5 uM incubated for 15 mins to 2 hrs in presence of forskolin by live cell imaging analysis; format: ADME, cell-based; conditions: time 15-120 min
[2] = Drug uptake in live human HeLa cells assessed as drug internalization at 5 uM incubated for 15 mins to 2 hrs in absence of forskolin by live cell imaging analysis; format: ADME, cell-based; conditions: time 15-120 min
[3] = Drug uptake in endosome of human HeLa cells assessed as punctate perinuclear pattern formation at 1 to 5 uM incubated for 15 mins to 2 hrs by live cell imaging analysis; format: ADME, subcellular; conditions: dose lower 1 µM, time lower 15 min, dose upper 5 µM, time upper 120 min
[4] = Drug uptake in cytoplasm of human HeLa cells at 1 to 5 uM incubated for 15 mins to 2 hrs by live cell imaging analysis; format: ADME, subcellular; conditions: dose lower 1 µM, time lower 15 min, dose upper 5 µM, time upper 120 min
[5] = Drug uptake in cell membrane of human HeLa cells assessed as observation of cell plasma membrane protrusions at 1 to 5 uM incubated for 15 mins to 2 hrs by live cell imaging analysis; format: ADME, cell membranes; conditions: dose lower 1 µM, time lower 15 min, dose upper 5 µM, time upper 120 min
[6] = Drug uptake in endosome of human HeLa cells assessed as punctate perinuclear pattern formation at 1 to 5 uM incubated for 15 mins to 2 hrs in presence of forskolin by live cell imaging analysis; format: ADME, subcellular; conditions: dose lower 1 µM, time lower 15 min, dose upper 5 µM, time upper 120 min
[7] = Drug uptake in cytoplasm of human HeLa cells at 1 to 5 uM incubated for 15 mins to 2 hrs in presence of forskolin by live cell imaging analysis; format: ADME, subcellular; conditions: dose lower 1 µM, time lower 15 min, dose upper 5 µM, time upper 120 min
[8] = Drug uptake in cell membrane of human HeLa cells assessed as observation of cell plasma membrane protrusions at 1 to 5 uM incubated for 15 mins to 2 hrs in presence of forskolin by live cell imaging analysis; format: ADME, cell membranes; conditions: dose lower 1 µM, time lower 15 min, dose upper 5 µM, time upper 120 min
[9] = Drug uptake in live human HeLa cells assessed as increase in fluorescence intensity at 1 to 5 uM by microplate reader analysis; format: ADME, cell-based; conditions: TDE = time-dependent effect, dose lower 1 µM, time lower 15 min, dose upper 5 µM, time upper 120 min
[10] = biological target: T1, cAMP-dependent protein kinase catalytic subunit alpha (Homo sapiens, UniProt P17612); test: Binding affinity to recombinant human spiked PKAC-alpha in human HeLa cells assessed as covalent compound-protein adduct formation by measuring multiple fluorescent band formation at 0.15 to 1 uM incubated for 1 hr by 5-TAMRA dye based Western blot analysis; format: cell-based; conditions: dose 0.15-1 µM
[11] = Drug uptake in live human HeLa cells assessed as drug penetration by measuring increase in fluorescence intensity at 5 uM incubated for 2 hrs by PKAc antibody immunostaining based Western blot analysis; format: ADME, cell-based
[12] = Drug uptake in human HeLa cell lysates assessed as drug penetration by measuring increase in fluorescence intensity at 1.5 uM incubated for 2 hrs by PKAc antibody immunostaining based Western blot analysis; format: ADME, subcellular
[13] = biological target: T1, cAMP-dependent protein kinase catalytic subunit alpha; test: Binding affinity to recombinant human PKAC-alpha in human HeLa cells assessed as increase in intensity of fluorescent labeled bands at 5 uM incubated for 2 hrs in presence of forskolin by Western blot analysis; format: cell-based

| Drug uptake [1] | Drug uptake [2] | Drug uptake [3] | Drug uptake [4] | Drug uptake [5] | Drug uptake [6] | Drug uptake [7] | Drug uptake [8] | Drug uptake [9] | Activity [10] | Drug uptake [11] | Drug uptake [12] | Activity [13] | Compound |
| --- | --- | --- | --- | --- | --- | --- | --- | --- | --- | --- | --- | --- | --- |
| Active | Active | Active | Active | Active | Active | Active | Active | Tde | – | – | – | – | CC[C@H](C)[C@H](NC(=O)CCC(=O)N[C@@H](CCCCNC(=O)[C@@H](CCCNC(=N)N)NC(=O)CCCCCCCC(=O)N1CCN(c2ncnc3[nH]ccc23)CC1)C(=O)N[C@H](CCCNC(=N)N)C(=O)N[C@H](CCCNC(=N)N)C(=O)N[C@H](CCCCNC(=O)CCCCC[N+]1=C(/C=C/C=C/C=C2\N(C)c3ccccc3C2(C)C)C(C)(C)c2ccccc21)C(N)=O)C(=O)NCC(=O)CF |
| – | – | – | – | – | – | – | – | – | Active | Active | Active | Active | CC[C@H](C)[C@H](NC(=O)CCC(=O)N[C@@H](CCCCNC(=O)[C@@H](CCCNC(=N)N)NC(=O)CCCCCCCC(=O)N1CCN(c2ncnc3[nH]ccc23)CC1)C(=O)N[C@H](CCCNC(=N)N)C(=O)N[C@H](CCCNC(=N)N)C(=O)N[C@H](CCCCNC(=O)CCCCC[N+]1=C(/C=C/C=C/C=C2\N(C)c3ccc4ccccc4c3C2(C)C)C(C)(C)c2c1ccc1ccccc21)C(N)=O)C(=O)NCC(=O)CF |
